Experimental data published in the NIST ThermoML archive (doi:10.1016/j.jct.2013.07.008).
Numbers after ± are expanded uncertainties.

How the values were obtained:
[1] = wn = mass fraction of the nth substance listed; conditions: for surface tension liquid-gas: Maximal bubble pressure; for mass density: 101 kPa, Liquid, Buoyancy - hydrostatic balance
[2] = refractive index (Na D-line) (dimensionless); wn = mass fraction of the nth substance listed; conditions: 101 kPa, Liquid, Standard Abbe refractometry

CC(O)C(=O)[O-].CCn1cc[n+](C)c1 [1-ethyl-3-methylimidazolium lactate] + O
Conditions	mass density, [1] [kg/m3]	refractive index, [2]	surface tension liquid-gas, [1] [mN/m]
288.15 K, w2 = 0.0082	1197.3 ± 1.1	1.5019 ± 0.0005	50.1 ± 0.6
288.15 K, w2 = 0.0104	1198.4 ± 1.1	1.5017 ± 0.0005	50.3 ± 0.6
288.15 K, w2 = 0.0121	1199.4 ± 1.1	1.5016 ± 0.0005	50.4 ± 0.6
288.15 K, w2 = 0.0158	1201.3 ± 1.1	1.5013 ± 0.0005	50.7 ± 0.6
288.15 K, w2 = 0.0205	1203.8 ± 1.1	1.5009 ± 0.0005	51 ± 0.6
293.15 K, w2 = 0.0082	1194.1 ± 1.1	1.5006 ± 0.0005	49.8 ± 0.6
293.15 K, w2 = 0.0104	1195.2 ± 1.1	1.5004 ± 0.0005	50 ± 0.6
293.15 K, w2 = 0.0121	1196.1 ± 1.1	1.5002 ± 0.0005	50.1 ± 0.6
293.15 K, w2 = 0.0158	1198.1 ± 1.1	1.4999 ± 0.0005	50.4 ± 0.6
293.15 K, w2 = 0.0205	1200.5 ± 1.1	1.4994 ± 0.0005	50.7 ± 0.6
303.15 K, w2 = 0.0082	1187.6 ± 1.1	1.498 ± 0.0005	49.1 ± 0.6
303.15 K, w2 = 0.0104	1188.8 ± 1.1	1.4978 ± 0.0005	49.3 ± 0.6
303.15 K, w2 = 0.0121	1189.7 ± 1.1	1.4977 ± 0.0005	49.4 ± 0.6
303.15 K, w2 = 0.0158	1191.5 ± 1.1	1.4974 ± 0.0005	49.7 ± 0.6
303.15 K, w2 = 0.0205	1194 ± 1.1	1.497 ± 0.0005	50.1 ± 0.6
308.15 K, w2 = 0.0082	1184.3 ± 1.1	1.4969 ± 0.0005	48.7 ± 0.6
308.15 K, w2 = 0.0104	1185.5 ± 1.1	1.4967 ± 0.0005	48.9 ± 0.6
308.15 K, w2 = 0.0121	1186.4 ± 1.1	1.4965 ± 0.0005	49 ± 0.6
308.15 K, w2 = 0.0158	1188.3 ± 1.1	1.4962 ± 0.0005	49.3 ± 0.6
308.15 K, w2 = 0.0205	1190.7 ± 1.1	1.4957 ± 0.0005	49.7 ± 0.6
313.15 K, w2 = 0.0082	1180.9 ± 1.1	1.4955 ± 0.0005	48.4 ± 0.6
313.15 K, w2 = 0.0104	1182 ± 1.1	1.4953 ± 0.0005	48.6 ± 0.6
313.15 K, w2 = 0.0121	1182.9 ± 1.1	1.4952 ± 0.0005	48.7 ± 0.6
313.15 K, w2 = 0.0158	1184.9 ± 1.1	1.4949 ± 0.0005	49 ± 0.6
313.15 K, w2 = 0.0205	1187.5 ± 1.1	1.4946 ± 0.0005	49.4 ± 0.6
318.15 K, w2 = 0.0082	1177.6 ± 1.1	1.4943 ± 0.0005	48.1 ± 0.6
318.15 K, w2 = 0.0104	1178.8 ± 1.1	1.4941 ± 0.0005	48.3 ± 0.6
318.15 K, w2 = 0.0121	1179.7 ± 1.1	1.494 ± 0.0005	48.4 ± 0.6
318.15 K, w2 = 0.0158	1181.5 ± 1.1	1.4937 ± 0.0005	48.7 ± 0.6
318.15 K, w2 = 0.0205	1184 ± 1.1	1.4933 ± 0.0005	49.1 ± 0.6
323.15 K, w2 = 0.0082	1174.5 ± 1.1	1.4931 ± 0.0005	47.7 ± 0.6
323.15 K, w2 = 0.0104	1175.6 ± 1.1	1.493 ± 0.0005	47.9 ± 0.6
323.15 K, w2 = 0.0121	1176.4 ± 1.1	1.4929 ± 0.0005	48 ± 0.6
323.15 K, w2 = 0.0158	1178.2 ± 1.1	1.4927 ± 0.0005	48.3 ± 0.6
323.15 K, w2 = 0.0205	1180.6 ± 1.1	1.4924 ± 0.0005	48.7 ± 0.6
328.15 K, w2 = 0.0082	1171.3 ± 1.1	1.4919 ± 0.0005	47.3 ± 0.6
328.15 K, w2 = 0.0104	1172.5 ± 1.1	1.4917 ± 0.0005	47.5 ± 0.6
328.15 K, w2 = 0.0121	1173.4 ± 1.1	1.4915 ± 0.0005	47.6 ± 0.6
328.15 K, w2 = 0.0158	1175.3 ± 1.1	1.4912 ± 0.0005	47.9 ± 0.6
328.15 K, w2 = 0.0205	1177.7 ± 1.1	1.4908 ± 0.0005	48.3 ± 0.6
333.15 K, w2 = 0.0082	1168 ± 1.1	1.4906 ± 0.0005	47 ± 0.6
333.15 K, w2 = 0.0104	1169.1 ± 1.1	1.4904 ± 0.0005	47.2 ± 0.6
333.15 K, w2 = 0.0121	1170 ± 1.1	1.4903 ± 0.0005	47.3 ± 0.6
333.15 K, w2 = 0.0158	1172 ± 1.1	1.49 ± 0.0005	47.6 ± 0.6
333.15 K, w2 = 0.0205	1174.5 ± 1.1	1.4896 ± 0.0005	48 ± 0.6
